# Experimental data: PMC9511483, “Refinement of Computational Access to Molecular Physicochemical Properties: From Ro5 to bRo5” (Journal of Medicinal Chemistry, 2022)
# Tests used:
# [1] = parameters: method as in Clark 1999; settings: atom selection N, O, S, P, H; ref Clark 1999; cited from earlier work
# [2] = log Ptol, miniaturized shake-flask toluene/water; assay type: physicochemical
# Procedure: log Ptol was determined with an automated, miniaturized shake flask method in a 96-well format according to the protocol described by Shalaeva and co-workers.[24]
# [3] = Δlog kW^IAM polarity descriptor; assay type: physicochemical; settings: experimental log kW^IAM minus clog kW^IAM from BRlogD
# Text: Δlog kW^IAM was earlier defined by Grumetto et al.[48] as (Δlog kW^IAM = experimental log kW^IAM – clog kW^IAM (log kW^IAM for neutral and nonpolar compounds with PSA = 0). Moreover, clog kW^IAM was correlated to log P (octanol/water)[48] and more recently to BRlogD[12] with equation (clog kW^IAM = BRlogD* 0.92–1.03). Therefore, the measurement of BRlogD and log kW^IAM for the three samples allowed to calculate polarity descriptor Δlog kW^IAM.
# [4] = SI Table S1; cited from earlier work
# [5] = Thermodynamic solubility; assay type: physicochemical; settings: for solubility: 25 °C, thermodynamic from solid, thermodynamic solubility, read-out: Solubility 25ºC log S (converted)
# Procedure: Table S1: Thermodynamic solubility and permeability data of the three selected compounds.
# Solubility 25 °C Permeability
# Molecules log S (mol/l) (cm/s x 10 )
# [6] = log k′80 PLRP-S chromatographic lipophilicity; assay type: physicochemical; settings: 80% ACN
# Procedure: (§1) Mobile phases consisted of an isocratic solution of 20 mM ammonium acetate at pH 7.0 and acetonitrile at various percentages (see specific method). Samples were dissolved in buffer/acetonitrile at concentrations ranging from 50 to 100 μg/mL. Chromatographic measurements were analyzed in duplicate. Then 10 μL of each solution (volume of injection) were injected at an isocratic 1 mL/min flow rate, analyzed at 30 °C (oven temperature). Each chromatographic descriptor required a specific HPLC method (see below).
# The retention times of the three samples were recorded at 80% ACN and capacity factors were calculated. Moreover, gold standards (acetone, caffeine, phenol, uracil–acetophenone--toluene mix and benzene) were daily checked.[15]
# [7] = BRlogD chromatographic lipophilicity (XBridge Shield RP18); assay type: physicochemical
# Procedure: as §1
# The three compounds previously dissolved in ACN were injected into the X-Bridge column (mobile phase: 40% buffer, 60% ACN), and the retention times and dead time (t0, baseline disturbance) were recorded. Consequently, capacity factor log k′60 was calculated (log k′60 = [tR – t0]/t0). The corresponding BRlogD value was obtained using equation: BRlogD = 3.31 × log k′60 + 2.79.[12] The used standard is acetone, caffeine, ibuprophen, lidocaine, phenol and a mixture of uracile, acetophenone and toluene.
# [8] = Δlog Poct-tol IMHB propensity; assay type: physicochemical; settings: difference between log Poct and log Ptol
# Text: Δlog Poct-tol([24]) (the difference between log Poct and log Ptol) is an indicator of the capacity of a compound to expose HDon groups, and thus it quantifies the molecular capacity to form dynamic IMHBs. […] Our data support that Saquinavir is the compound with the highest capacity to form IMHB, its Δlog Poct-tol being 0.79. Pomalidomide and CMP 98 show poorer propensity to mask HDon groups, although not negligible.
# [9] = PLRP-S retention at 50-100% ACN (chameleonicity); assay type: physicochemical; settings: mobile phases 50 to 100% ACN
# Text: In a recent paper, we proposed to monitor the propensity of compounds to assume a chameleonic behavior through the analysis of the variation of the capacity factor in a nonpolar polymeric chromatographic system, named PLRP-S.[16] Here we applied the same approach and determined the retention of the three compounds in the PLRP-S system with various mobile phases (from 50 to 100% ACN). According to the reverse-phase (RP) nature of the system, the retention time (and thus log k′ PLRP-S) of lipophilic molecules is expected to decrease when increasing the amount of acetonitrile in the mobile phase. […] This experimental finding can be explained by a propensity of Saquinavir to change its conformation in a nonpolar environment, masking its polarity supporting the chameleonic properties of this compound.
# [10] = log kW^IAM chromatographic lipophilicity (IAM.PC.DD2 column); assay type: physicochemical; settings: extrapolated to 100% buffer, pH 7.0
# Procedure: as §1
# Dissolved samples were injected into column IAM.PC.DD2, and retention times were recorded at different mobile phase percentages (from 10 to 50% ACN). Capacity factor was calculated for each mobile phase condition using equation: k′ = [tR – t0]/t0) t0 being the retention time of a nonretained molecule (citric acid). The log kW^IAM value for each molecule was calculated by extrapolating the 100% buffer value (0% ACN) from the equation obtained with the five mobile phase conditions, previously mentioned. In addition, five standards (caffeine, carbamazepine, ketoprofen, theobromine, and toluene) were examined on a daily basis.[33]
# [11] = EPSA supercritical fluid chromatography polarity; assay type: physicochemical; settings: SFC, Chirex 3014
# Procedure: EPSA was determined following the SFC protocol by Goetz and co-workers.[17] Briefly, a polar stationary phase (Chirex 3014) and a nonpolar mobile phase (supercritical CO2 with the addition of 20 mM ammonium formate in methanol as a modifier) were used to enable separation of compounds based on their polarity. The modifier was varied in 11 min from 5% to 60% at 5%/min in a linear gradient, holding at 60% for 4.9 min and reverting to the original 5% in 0.1 min. The flow rate was 5 mL/min, with the outlet back pressure set to 100 bar instead of 140 bar of the original method. Samples were dissolved in DMSO, the injection volume was 5 μL. The column temperature was set to 40 °C.
# [12] = tested on: Caco-2; settings: cited from earlier work
# [13] = parameters: method as in PMID 29608068; settings: cited from earlier work
compound,measurement,setting,value
CC(=O)Nc1ccc(O)cc1 [Acetaminophen],3D PSA PSA Clark 1999,[1],58.5 Å2
O=C1CN=C(c2ccccn2)c2cc(Br)ccc2N1 [Bromazepam],3D PSA PSA Clark 1999,[1],57.4 Å2
Cc1ncsc1-c1ccc(CNC(=O)[C@@H]2C[C@H](O)CN2C(=O)[C@@H](NC(=O)COCCOCCOCCOCCOCCOCC(=O)N[C@H](C(=O)N2C[C@@H](O)C[C@H]2C(=O)NCc2ccc(-c3scnc3C)cc2)C(C)(C)C)C(C)(C)C)cc1 [CMP 98],log Ptol (SF),[2],-0.24
same,Δlog kW^IAM,[3],2.1
same,PAMPA permeability,[4],not PAMPA permeable
same,solubility,[5],331 µM
same,water solubility,[5]; SI Table S1,water-soluble
same,log k´80 PLRP-S,[6],-0.84
same,chromatographic logD,"[7]; XBridge Shield RP18 HPLC column, 60% ACN, ammonium acetate pH 7.0",1.38
same,Δlog P (Δlog Poct-tol),[8],1.62
same,log k′ PLRP-S behaviour with increasing acetonitrile (chameleonicity index),[9],some deviation from linearity
same,log kW^IAM,[10],2.34
same,EPSA,[11],104 A^2
Cn1c(=O)c2c(ncn2C)n(C)c1=O [Caffeine],3D PSA PSA Clark 1999,[1],59.2 Å2
O=c1ccc2ccccc2o1 [Coumarin],3D PSA PSA Clark 1999,[1],33.9 Å2
Nc1nnc(-c2cccc(Cl)c2Cl)c(N)n1 [Lamotrigine],3D PSA PSA Clark 1999,[1],96.4 Å2
CN1C(=O)C(O)N=C(c2ccccc2Cl)c2cc(Cl)ccc21 (stereo not drawn) [Lormetazepam],3D PSA PSA Clark 1999,[1],55.9 Å2
Cc1cc(=O)n(-c2ccccc2)n1C [Phenazone],3D PSA PSA Clark 1999,[1],28 Å2
Nc1cccc2c1C(=O)N(C1CCC(=O)NC1=O)C2=O (stereo not drawn) [Pomalidomide],log Ptol (SF),[2],-0.22
same,Δlog kW^IAM,[3],0.64
same,solubility,[5],28.2 µM
same,log k´80 PLRP-S,[6],-0.65
same,BRlogD,"[7]; 60% ACN, ammonium acetate pH 7.0",1.41
same,Δlog P (Δlog Poct-tol),[8],1.63
same,log k′ PLRP-S behaviour with increasing acetonitrile (chameleonicity index),[9],about in line with expectations
same,Permeability (Caco-2),"[12]; Caco-2, ref 13 (SI)",24.9 cm/s x 10^-6
same,log kW^IAM,[10],0.91
same,EPSA,[11],82 A^2
CC(=O)[C@H]1CC[C@H]2[C@@H]3CCC4=CC(=O)CC[C@]4(C)[C@H]3CC[C@]12C [Progesterone],3D PSA PSA Clark 1999,[1],41.2 Å2
O=C(O)c1ccccc1O [Salicylic Acid],3D PSA PSA Clark 1999,[1],62.5 Å2
CC(C)(C)NC(=O)[C@@H]1C[C@@H]2CCCC[C@@H]2CN1C[C@@H](O)[C@H](Cc1ccccc1)NC(=O)[C@H](CC(N)=O)NC(=O)c1ccc2ccccc2n1 [Saquinavir],log Ptol (SF),[2],2.06
same,Δlog kW^IAM,[3],1.85
same,log k´80 PLRP-S,[6],-0.1
same,BRlogD,[7]; pH 7,2.85
same,Δlog P (Δlog Poct-tol),[8],0.79
same,log k′ PLRP-S behaviour with increasing acetonitrile (chameleonicity index),[9],significantly higher than expected
same,Permeability (Caco-2 with efflux inhibiton),"[12]; Caco-2 with efflux inhibition, ref 11 (SI)",5.0 cm/s x 10^-6
same,Permeability mechanism,[12]; ref 11 (SI),Mainly active transport
same,pKa,[13],7.1
same,log kW^IAM,[10],3.44
same,EPSA,[11],94 A^2
Cn1c(=O)c2[nH]cnc2n(C)c1=O [Theophylline],3D PSA PSA Clark 1999,[1],74.7 Å2
